# Laboratory results reported in patent US4006144A, “10,11-Dihydro-dibenzo(b,f)thiepin derivatives” (Hoffmann-La Roche Inc., priority 1972, dated 1977).
# Counter-ions that a name gives are not always drawn. Like-named read-outs stand apart in the source and are kept apart here.
# What was measured:
# Assay type in all cases: in vivo
# mice = assay: Rotating rod test; conditions: for ED50: Mus musculus, po, read-out: ED50 (dose which reduces the holding time to 50%)
# Procedure: In the rotating rod test, the ability of mice to achieve a coordinated, motoric performance is tested. After the peroral administration of the test substance, mice are placed on a horizontal, slowly rotating rod and the time until the mice fall off the rod is measured.
# homovanillic acid (HVA) = assay: Determination of homovanillic acid (turnover of dopamine in the basal ganglia); conditions: rats; for Increase of HVA: 2 hours, untreated rats fixed at 100%
# Procedure: Rats are injected with the derivative to be tested 2 hours before they are killed.
# Homovanillic acid is extracted from the supernatant of the brain homogenate into butyl acetate and later into an aqueous solution and oxidised with potassium ferricyanide to a fluorescent dimer. From the increased concentration of homovanillic acid (HVA) it can be concluded that the derivative under investigation acts like chlorpromazine, i.e. it increases the turnover of dopamine in the basal ganglia. The homovanillic acid titre in untreated rats is arbitrarily fixed at 100%.
# rats [1] = assay: Pole climbing test; conditions: for Quotient ED10 (Blocking of the unconditioned reaction)/ED50 (Blocking of the conditioned reaction): higher = greater selectivity of neuroleptic action
# Procedure: This test gives information about behaviour reactions of rats. Rats are trained to avoid, by climbing up a vertical pole in the test chamber, an electrical impulse (unconditioned impulse) released via the wire-latticed floor some seconds after an acoustic signal (conditioned impulse).
# The blocking of the conditioned reaction is determined by the parameter ED50 (mg/kg p.o.); the blocking of the unconditioned reaction is determined by the parameter ED10 (mg/kg p.o.).
# The parameter ED50 (blocking of the conditioned reaction) gives a measure of the neuroleptic activity strength of the test substance. The quotient ED10 (blocking of the unconditioned reaction)/ED50 (blocking of the conditioned reaction) gives a measure of the quality of action of the test substance, in that with increasing quotient a greater selectivity of the neuroleptic action (slighter neurotoxic side-effects) is present.
# rats [2] = assay: Cataleptic action in rats (homolateral extremities crossed position); conditions: rats, intraperitoneal
# Procedure: (§1) The following products were investigated:
# (§2) The amimals are considered to be cataleptic when the homolateral extremities remain for at least 10 seconds in the crossed position. The number of cataleptic animals is noted every 30 minutes for 6 hours.
# [3] = as above; conditions: rat, in vivo, ip
# Procedure: as §1, §2
SMILES,ED50 (mice),Increase of HVA (homovanillic acid (HVA); 20 mg/kg p.o.),Quotient ED10 (Blocking of the unconditioned reaction)/ED50 (Blocking of the conditioned reaction) (rats [1]; p.o.),"ED50 (mice; mice, peroral)","action in rotating rod test (in words) (mice; mice, peroral)",Increase of HVA (homovanillic acid (HVA); 50 mg/kg p.o.),activity in HVA test compared with chlorpromazine (in words) (homovanillic acid (HVA)),"ED50 (rats [1]; Rattus norvegicus, po, read-out: ED50 (Blocking of the conditioned reaction))",neuroleptic action and quality (selectivity) compared with chlorpromazine (in words) (rats [1]; p.o.),cataleptic action in comparison to chlorpromazine (in words) (rats [2]),TD50 at 6 h [3],"TD50 at 6 h ([3]; rats, intraperitoneal, noted every 30 minutes for 6 hours, read-out: ED50 (dose at which 50% of the animals show catalepsy))"
"CN(C)CCCN1c2ccccc2Sc2ccc(Cl)cc21 [Chlorpromazine, reference compound]",5 mg/kg,321%,3.5,–,–,–,–,–,–,–,–,–
"O=C1OCCN1CCN1CCN(C2Cc3cc(Cl)ccc3Sc3ccccc32)CC1 (stereo not shown) [Product A, 3-[2-[4-(2-chloro-10,11-dihydro-dibenzo[b,f]thiepin-10-yl)-1-piperazinyl]-ethyl]-2-oxozolidinone maleate]",–,–,4.2,7.9 mg/kg,strong action,340%,almost equalizes that of chloropromazine,10 mg/kg,"strong neuroleptic action but also a quality (selectivity) of the neuroleptic action, both of which somewhat exceed that of chlorpromazine",no cataleptic action or only a slight cataleptic action,> 100 mg/kg,–
"Cc1ccc2c(c1)CC(N1CCN(CCN3CCOC3=O)CC1)c1ccccc1S2.O=C(O)/C=C\C(=O)O (stereo not shown) [Product B, 3-[2-[4-(10,11-dihydro-2-methyl-dibenzo[b,f]thiepin-10-yl)-1-piperazinyl]-ethyl]-2-oxazolidinone maleate]",–,–,–,–,–,255%,almost equalizes that of chloropromazine,–,–,no cataleptic action or only a slight cataleptic action,–,70 mg/kg
